The test system of the assay is symmetric dimethylation of arginine (SDMA) of PRMT5 substrates in MCF-7 cells. Kind of assay: PRMT5 Cell Target Engagement (TE) Assay. Type of assay: cell-based. As to conditions: Homo sapiens, MCF7, 72 h; MCF-7 cells treated for 3 days; nuclear SDMA by high content imaging; top concentration 10000 nM. The essentials: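 MCF-7 cells treated 3 days at 37 °C with 10-point 1:3 titration from 10000 nM top. Fixed cells stained with anti-SDMA antibody plus Alexa488 secondary and Hoechst; nuclear fluorescence quantified by high-content imaging versus DMSO wells. EC50 from 4-parameter fit of percent fluorescence vs log concentration.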

Here are results for 19 compounds from patent publication US12173026B2, “PRMT5 inhibitors” (Merck Sharp & Dohme LLC, priority 2018, dated 2024).

By EC50 is commonly meant the midpoint of the concentration-response curve. Lower therefore signals greater potency.

As to `Cc1nc(N)nc2c1ccn2[C@@H]1O[C@@H]2[C@@H](Oc3ccc4cc(Br)c(N)nc4c3)CC[C@]2(O)[C@H]1O` [Example 114, (2R,3R,3aS,6S,6aR)-6-((2-amino-3-bromoquinolin-7-yl)oxy)-2-(2-amino-4-methyl-7H-pyrrolo[2,3-d]pyrimidin-7-yl)hexahydro-3aH-cyclopenta[b]furan-3,3a-diol], the EC50 turned out to be 4.4 nM.

In turn, `Cc1ncnc2c1ccn2[C@@H]1O[C@@H]2[C@@H](Oc3ccc4cc(C(F)F)c(N)nc4c3)CC[C@]2(O)[C@H]1O` [Example 115, (2R,3R,3aS,6S,6aR)-6-((2-amino-3-(difluoromethyl)quinolin-7-yl)oxy)-2-(4-methyl-7H-pyrrolo[2,3-d]pyrimidin-7-yl)hexahydro-3aH-cyclopenta[b]furan-3,3a-diol] came in with an EC50 of 13.6 nM.

Consider `C[C@@]1(CCc2ccc3cc(F)c(N)nc3c2)C[C@@H](n2ccc3c(N)ncnc32)[C@H](O)[C@@H]1O` [Example 116, (1S,2R,3R,5R)-3-(2-(2-amino-3-fluoroquinolin-7-yl)ethyl)-5-(4-amino-7H-pyrrolo[2,3-d]pyrimidin-7-yl)-3-methylcyclopentane-1,2-diol], for which a half-maximal effect (EC50) was put at 53.7 nM.

The compound `C[C@]1(CCc2ccc3cc(Br)c(N)nc3c2)C[C@@H](n2ccc3c(N)ncnc32)[C@H](O)[C@]1(C)O` [Example 117, (1R,2S,3R,5S)-5-(2-(2-amino-3-bromoquinolin-7-yl)ethyl)-3-(4-amino-7H-pyrrolo[2,3-d]pyrimidin-7-yl)-1,5-dimethylcyclopentane-1,2-diol] gave an EC50 of 8.5 nM. With `C[C@]1(O)[C@@H](O)[C@H](n2ccc3c(N)ncnc32)C[C@]1(O)CCc1ccc2cc(Br)c(N)nc2c1` [Example 118, (1R,2S,3S,4R)-1-(2-(2-amino-3-bromoquinolin-7-yl)ethyl)-4-(4-amino-7H-pyrrolo[2,3-d]pyrimidin-7-yl)-2-methylcyclopentane-1,2,3-triol] the figure was 103 nM; with `Nc1nc2cc(O[C@H]3CC[C@@]4(O)[C@@H]3C[C@@H](n3ccc5c(N)ncnc53)[C@@H]4O)ccc2cc1Br` [Example 119, (1S,2R,3aR,4S,6aR)-4-((2-amino-3-bromoquinolin-7-yl)oxy)-2-(4-amino-7H-pyrrolo[2,3-d]pyrimidin-7-yl)hexahydropentalene-1,6a(1H)-diol 2,2,2-trifluoroacetate], 180 nM; with `Cc1ncnc2c1ccn2[C@@H]1O[C@@H]2[C@@H](Nc3ccc4cc(F)c(N)nc4c3)CC[C@]2(O)[C@H]1O` [Example 120, (2R,3R,3aS,6S,6aR)-6-(2-amino-3-fluoroquinolin-7-yl)amino-2-(4-methyl-7H-pyrrolo[2,3-d]pyrimidin-7-yl)hexahydro-3aH-cyclopenta[b]furan-3,3a-diol], 2 nM. Under `C[C@]12O[C@@H](n3ccc4c(N)ncnc43)[C@H](O)[C@@]1(O)CC[C@H]2Cc1ccc2cc(F)c(N)nc2c1` [Example 121, (2R,3R,3aS,6S,6aR)-6-((2-amino-3-fluoroquinolin-7-yl)methyl)-2-(4-amino-7H-pyrrolo[2,3-d]pyrimidin-7-yl)-6a-methylhexahydro-3aH-cyclopenta[b]furan-3,3a-diol] stands 1 nM; under `Cc1ncnc2c1ccn2[C@@H]1O[C@@H]2[C@H](Cc3ccc4cc(Cl)c(N)nc4c3)CC[C@]2(O)[C@H]1O` [Example 122, (2R,3R,3aS,6S,6aR)-6-((2-amino-3-chloroquinolin-7-yl)methyl)-2-(4-methyl-7H-pyrrolo[2,3-d]pyrimidin-7-yl)hexahydro-3aH-cyclopenta[b]furan-3,3a-diol], 2.5 nM; under `Cc1ncnc2c1ccn2[C@@H]1O[C@@H]2[C@H](Cc3ccc4cc(F)c(N)nc4c3)CC[C@]2(O)[C@H]1O` [Example 123, (2R,3R,3aS,6S,6aR)-6-((2-amino-3-fluoroquinolin-7-yl)methyl)-2-(4-methyl-7H-pyrrolo[2,3-d]pyrimidin-7-yl)hexahydro-3aH-cyclopenta[b]furan-3,3a-diol], 13.1 nM. With `Nc1nc2cc(C[C@@H]3CC[C@@]4(O)[C@@H]3O[C@@H](n3ccc5c(N)ncnc53)[C@@H]4O)ccc2cc1F` [Example 124, (2R,3R,3aS,6S,6 aR)-6-((2-amino-3-fluoroquinolin-7-yl)methyl)-2-(4-amino-7H-pyrrolo[2,3-d]pyrimidin-7-yl)hexahydro-3aH-cyclopenta[b]furan-3,3a-diol] the figure was 2.3 nM. In turn, `Cc1cc2ccc(C[C@@H]3CC[C@@]4(O)[C@@H]3O[C@@H](n3ccc5c(N)ncnc53)[C@@H]4O)cc2nc1N` [Example 125, (2R,3R,3aS,6S,6aR)-6-((2-amino-3-methylquinolin-7-yl)methyl)-2-(4-amino-7H-pyrrolo[2,3-d]pyrimidin-7-yl)hexahydro-3aH-cyclopenta[b]furan-3,3a-diol] registered an EC50 of 0.7 nM. With `C[C@]1(CCc2ccc3cc4c(nc3c2)NCC4)C[C@@H](n2ccc3c(N)ncnc32)[C@H](O)[C@@H]1O` [Example 126, (1S,2R,3S,5R)-5-(4-amino-7H-pyrrolo[2,3-d]pyrimidin-7-yl)-3-(2-(2,3-dihydro-1H-pyrrolo[2,3-b]quinolin-7-yl)ethyl)-3-methylcyclopentane-1,2-diol] the figure was 2.9 nM; with `Cc1nc(N)nc2c1ccn2[C@@H]1O[C@@H]2[C@H](Cc3ccc4cc(Br)c(N)nc4c3)CC[C@]2(O)[C@H]1O` [Example 127, (2R,3R,3aS,6S,6aR)-6-((2-amino-3-bromoquinolin-7-yl)methyl)-2-(2-amino-4-methyl-7-pyrrolo[2,3-d]pyrimidin-7-yl)hexahydro-3aH-cyclopenta[b]furan-3,3a-diol], 0.8 nM.

The compound `Nc1nc2cc(O[C@H]3CC[C@@]4(O)[C@@H]3O[C@@H](n3ccc5c(N)ncnc53)[C@@H]4O)ccc2cc1C(F)F` [Example 128, (2R,3R,3aS,6S,6aR)-6-((2-amino-3-(difluoromethyl)quinolin-7-yl)oxy)-2-(4-amino-7H-pyrrolo[2,3-d]pyrimidin-7-yl)hexahydro-3aH-cyclopenta[b]furan-3,3a-diol] came in with an EC50 of 15.5 nM. In turn, `Cc1ncnc2c1ccn2[C@@H]1O[C@@H]2[C@H](Oc3ccc4cc(Br)c(N)nc4c3)CC[C@]2(O)[C@H]1O` [Example 129, (2R,3R,3aS,6R,6aR)-6-((2-amino-3-bromoquinolin-7-yl)oxy)-2-(4-methyl-7H-pyrrolo[2,3-d]pyrimidin-7-yl)hexahydro-3aH-cyclopenta[b]furan-3,3a-diol] returned an EC50 of 10000 nM. Consider `Nc1ncc2c(F)cn([C@@H]3O[C@@H]4[C@@H](Oc5ccc6cc(Br)c(N)nc6c5)CC[C@]4(O)[C@H]3O)c2n1` [Example 130, (2R,3R,3aS,6S,6aR)-6-((2-amino-3-bromoquinolin-7-yl)oxy)-2-(2-amino-5-fluoro-7H-pyrrolo[2,3-d]pyrimidin-7-yl)hexahydro-3aH-cyclopenta[b]furan-3,3a-diol], for which the EC50 came out at 135 nM. With `Cc1ncnc2c1ccn2[C@@H]1O[C@@H]2[C@@H](Cc3ccc4cc(Cl)c(N)nc4c3)CC[C@]2(O)[C@H]1O` [Example 131, (2R,3R,3aS,6R,6aR)-6-((2-amino-3-chloroquinolin-7-yl)methyl)-2-(4-methyl-7H-pyrrolo[2,3-d]pyrimidin-7-yl)hexahydro-3aH-cyclopenta[b]furan-3,3a-diol] the figure was 21.3 nM; with `Nc1nc2cc(CC3OC[C@@]4(O)C3C[C@@H](n3ccc5c(N)ncnc53)[C@@H]4O)ccc2cc1Br` (stereo partly shown) [Example 132], 236 nM.
